The target of one experiment is Recombinant human IDO (Homo sapiens, UniProt P14902). Briefly: hIDO biochemical assay (coupled with formamidase). The note with it: coupled with kynurenine formamidase, fluorescence. As for the experimental part: (§1) Exemplary compounds of the invention were prepared, and tested to determine their effect as TDO and/or IDO inhibitors. Two different assays were employed: 1. a cell-based assay for detecting the effect of test compounds on kynurenine production in two different cancer cell types. This assay utilised cancer cells which expressed either TDO (A172) or IDO (SKOV3) and as such was used as a means of testing compound activity at these two enzymes in a cell-based context. 2. a TDO and IDO biochemical coupled assay which utilised recombinantly produced and purified TDO and IDO enzymes in combination with the enzyme formamidase. This coupled enzyme system allowed conversion of N-formylkynurenine produced by TDO or IDO activity to kynurenine which was then quantified by fluorescence following addition of Erhlich's Reagent The protocols for these are set out below.
Chain of Recombinant human IDO (P14902 whole entry): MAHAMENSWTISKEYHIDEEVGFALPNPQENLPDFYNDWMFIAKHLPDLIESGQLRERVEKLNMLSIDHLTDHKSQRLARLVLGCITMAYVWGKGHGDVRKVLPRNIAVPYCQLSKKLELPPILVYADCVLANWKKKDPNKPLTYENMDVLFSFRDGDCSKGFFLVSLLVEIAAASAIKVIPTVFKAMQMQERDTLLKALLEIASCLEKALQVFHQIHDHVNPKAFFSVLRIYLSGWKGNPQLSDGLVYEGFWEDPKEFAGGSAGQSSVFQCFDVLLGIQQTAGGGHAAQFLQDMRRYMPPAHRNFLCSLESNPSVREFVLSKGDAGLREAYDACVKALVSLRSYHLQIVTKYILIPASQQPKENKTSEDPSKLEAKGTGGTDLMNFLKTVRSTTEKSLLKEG
(§2) TDO and IDO Biochemical Coupled Assay
(§3) Recombinant human IDO or TDO was incubated in 50 mM KPO4 (pH 7.0), 0.5 mM EGTA, 0.5 mM EDTA, 0.05% Triton™ X100, 20 mM ascorbate, […] methylene blue, 500 U/ml catalase, 50 μg/ml KynB (kynurenine formamidase). TDO assays were carried out in the presence of 330 μM L-tryptophan, while IDO assays had the addition of 45 µM L-tryptophan. After incubation for 17 minutes at room temperature the reactions were stopped by the addition of Erhlich's reagent and incubated at room temperature for 5 minutes before the fluorescence was read (Ex475, Em530).

For a further experiment, the target named is T1, TDO (A172) (Homo sapiens, UniProt P48775).
T1 construct: This assay utilised cancer cells which expressed either TDO (A172) or IDO (SKOV3); endogenous in cells; host or cells: A172 (human glioblastoma)
T1 sequence (P48775 whole entry): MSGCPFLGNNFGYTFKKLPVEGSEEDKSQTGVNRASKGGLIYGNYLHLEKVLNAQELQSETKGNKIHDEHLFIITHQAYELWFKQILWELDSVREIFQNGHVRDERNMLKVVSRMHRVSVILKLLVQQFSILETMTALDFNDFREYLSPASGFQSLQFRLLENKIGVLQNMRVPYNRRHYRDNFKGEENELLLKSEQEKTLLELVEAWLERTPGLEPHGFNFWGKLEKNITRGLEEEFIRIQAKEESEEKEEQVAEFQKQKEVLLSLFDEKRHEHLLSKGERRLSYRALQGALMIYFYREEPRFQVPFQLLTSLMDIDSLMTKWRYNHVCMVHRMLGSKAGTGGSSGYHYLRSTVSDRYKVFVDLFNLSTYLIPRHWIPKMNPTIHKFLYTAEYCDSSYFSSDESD
Briefly: A172 Kynurenine cell based assay. The note with it: A172 human glioblastoma cells expressing TDO; kynurenine production, 48 hours. The procedure:
as §1
(§4) Cell Based Assay for Detection of Kynurenine Produced by TDO and/or IDO
A172 (human glioblastoma) and SKOV3 (human ovarian adenocarcinoma) cells were seeded in a 96 well plate at 30,000 or 40,000 cells per well respectively in phenol red-free RPMI supplemented with 10% FCS, 2 mM L-glutamine and 500 µM L-tryptophan. IDO expression was induced in the SKOV3 cells by the addition of 500 ng/ml IFN-γ. Cells were incubated at 37° C. with or without the addition of test compound. After 48 hours, the cells were removed by centrifugation and Erhlich's reagent was added to the supernatant. The Erhlich's reagent was incubated for 5 minutes before the absorbance was read at 490 nm.

A further experiment concerns the target Recombinant human TDO (Homo sapiens, UniProt P48775). The experiment in a line: hTDO biochemical assay (coupled with formamidase). The note with it: 330 μM L-tryptophan, coupled with kynurenine formamidase, fluorescence. The procedure: as §1, §2, §3
In the next experiment the target is T2, IDO (SKOV3) (Homo sapiens, UniProt P14902).
T2 construct: IDO expression was induced in the SKOV3 cells by the addition of 500 ng/ml IFN-γ; endogenous in cells; host or cells: SKOV3 (human ovarian adenocarcinoma), IFN-γ induced
T2 sequence (P14902 whole entry): as the sequence (P14902 whole entry) above
The experiment in a line: SKOV3 Kynurenine cell based assay. The note with it: SKOV3 human ovarian adenocarcinoma cells, IDO induced by IFN-γ; kynurenine production, 48 hours. The procedure:
as §1, §4
A172 (human glioblastoma) and SKOV3 (human ovarian adenocarcinoma) cells were seeded in a 96 well plate at 30,000 or 40,000 cells per well respectively in phenol red-free RPMI supplemented with 10% FCS, 2 mM L-glutamine and 500 µM L-tryptophan. IDO expression was induced in the SKOV3 cells by the addition of 500 ng/ml IFN-γ. Cells were incubated at 37° C. with or without the addition of test compound. After 48 hours, the cells were removed by centrifugation and Erhlich's reagent was added to the supernatant.

Chain of Recombinant human TDO (P48775 whole entry): as the sequence (P48775 whole entry) above

As to `Nc1oncc1-c1cccc(F)c1` [Compound 13], the “hIDO biochemical assay pIC50” value at Recombinant human IDO was “++ (++ = pIC50 4.50-5.49)”. Further, on TDO (A172), the “A172 Kynurenine cell based assay pIC50” value is “+++ (+++ = pIC50 ≥ 5.50)”. The “hTDO biochemical assay pIC50” value on Recombinant human TDO is “+ (+ = pIC50 4.00-4.49)”. In addition, the “SKOV3 Kynurenine cell based assay pIC50” value on IDO (SKOV3) is “++ (++ = pIC50 4.50-5.49)”.

As for `Nc1oncc1-c1ccc(F)cc1` [Compound 1], the “hIDO biochemical assay pIC50” value on Recombinant human IDO is “++ (++ = pIC50 4.50-5.49)”. Moreover, the “A172 Kynurenine cell based assay pIC50” value on TDO (A172) is on record as “+++ (+++ = pIC50 ≥ 5.50)”. Further, the “hTDO biochemical assay pIC50” value at Recombinant human TDO is “++ (++ = pIC50 4.50-5.49)”. In addition, on IDO (SKOV3), the “SKOV3 Kynurenine cell based assay pIC50” value is “++ (++ = pIC50 4.50-5.49)”.

In the case of `O=C(CO)Nc1oncc1-c1ccccc1` [Compound 63], at Recombinant human IDO, the “hIDO biochemical assay pIC50” value is on record as “+ (+ = pIC50 4.00-4.49)”. Besides, the “A172 Kynurenine cell based assay pIC50” value at TDO (A172) is “+++ (+++ = pIC50 ≥ 5.50)”. Also, on Recombinant human TDO, the “hTDO biochemical assay pIC50” value is on record as “+/− (+/− = pIC50 < 4.00)”. Moreover, the “SKOV3 Kynurenine cell based assay pIC50” value at IDO (SKOV3) is given as “++ (++ = pIC50 4.50-5.49)”.

As for `CC(C)C(=O)Nc1oncc1-c1ccccc1` [Compound 34], the “hIDO biochemical assay pIC50” value on Recombinant human IDO is “++ (++ = pIC50 4.50-5.49)”. The “A172 Kynurenine cell based assay pIC50” value on TDO (A172) is reported as “++ (++ = pIC50 4.50-5.49)”. Moreover, the “hTDO biochemical assay pIC50” value at Recombinant human TDO is reported as “++ (++ = pIC50 4.50-5.49)”. The “SKOV3 Kynurenine cell based assay pIC50” value at IDO (SKOV3) is “++ (++ = pIC50 4.50-5.49)”.

Turning to `Nc1oncc1-c1ccccc1` [Compound 7], the “hIDO biochemical assay pIC50” value on Recombinant human IDO was “++ (++ = pIC50 4.50-5.49)”. The “A172 Kynurenine cell based assay pIC50” value on TDO (A172) was “+++ (+++ = pIC50 ≥ 5.50)”. Also, on Recombinant human TDO, the “hTDO biochemical assay pIC50” value was “++ (++ = pIC50 4.50-5.49)”. Further, the “SKOV3 Kynurenine cell based assay pIC50” value on IDO (SKOV3) is “++ (++ = pIC50 4.50-5.49)”.

As for `CC(=O)Nc1oncc1-c1ccccc1` [Compound 17], the “hIDO biochemical assay pIC50” value at Recombinant human IDO was “+ (+ = pIC50 4.00-4.49)”. Moreover, at TDO (A172), the “A172 Kynurenine cell based assay pIC50” value was “++ (++ = pIC50 4.50-5.49)”. Also, the “hTDO biochemical assay pIC50” value at Recombinant human TDO is “+ (+ = pIC50 4.00-4.49)”. For the same compound, the “SKOV3 Kynurenine cell based assay pIC50” value at IDO (SKOV3) is on record as “+ (+ = pIC50 4.00-4.49)”.

For the compound `O=S(=O)(Nc1oncc1-c1ccccc1)c1ccccc1` [Compound 26], the “hIDO biochemical assay pIC50” value at Recombinant human IDO was “+++ (+++ = pIC50 ≥ 5.50)”. The “A172 Kynurenine cell based assay pIC50” value at TDO (A172) is “+ (+ = pIC50 4.00-4.49)”. The “hTDO biochemical assay pIC50” value on Recombinant human TDO was “+/− (+/− = pIC50 < 4.00)”. The “SKOV3 Kynurenine cell based assay pIC50” value at IDO (SKOV3) is recorded as “++ (++ = pIC50 4.50-5.49)”.

Turning to `CC(O)C(=O)Nc1oncc1-c1ccccc1` (stereo not shown) [Compound 75], on Recombinant human IDO, the “hIDO biochemical assay pIC50” value is on record as “++ (++ = pIC50 4.50-5.49)”. For the same compound, the “A172 Kynurenine cell based assay pIC50” value on TDO (A172) is given as “+++ (+++ = pIC50 ≥ 5.50)”. In addition, on Recombinant human TDO, the “hTDO biochemical assay pIC50” value was “++ (++ = pIC50 4.50-5.49)”. In addition, at IDO (SKOV3), the “SKOV3 Kynurenine cell based assay pIC50” value is on record as “+ (+ = pIC50 4.00-4.49)”.

`Nc1noc(N)c1-c1cccc(Cl)c1` [Compound 5]: the “hIDO biochemical assay pIC50” value at Recombinant human IDO is “++ (++ = pIC50 4.50-5.49)”. Moreover, the “A172 Kynurenine cell based assay pIC50” value on TDO (A172) is given as “+++ (+++ = pIC50 ≥ 5.50)”. Moreover, on Recombinant human TDO, the “hTDO biochemical assay pIC50” value is reported as “+ (+ = pIC50 4.00-4.49)”. Besides, the “SKOV3 Kynurenine cell based assay pIC50” value at IDO (SKOV3) is given as “++ (++ = pIC50 4.50-5.49)”.

Consider `CC(N)C(=O)Nc1oncc1-c1ccccc1` (stereo not shown) [Compound 81], for which, at Recombinant human IDO, the “hIDO biochemical assay pIC50” value is listed as “+ (+ = pIC50 4.00-4.49)”. On TDO (A172), the “A172 Kynurenine cell based assay pIC50” value is reported as “+++ (+++ = pIC50 ≥ 5.50)”. For the same compound, the “hTDO biochemical assay pIC50” value on Recombinant human TDO was “+/− (+/− = pIC50 < 4.00)”. Also, the “SKOV3 Kynurenine cell based assay pIC50” value at IDO (SKOV3) is “++ (++ = pIC50 4.50-5.49)”.

Values taken from patent US10047074B2, “Pharmaceutical compound” (IOmet Pharma Ltd., priority 2014, dated 2018).
